Results: patent US5639766A, “N-substituted azaheterocyclic carboxylic acids and esters thereof” (Novo Nordisk A/S, priority 1993, dated 1997)
Structures can show the parent of a compound that is named as a salt.

Assays:
[1] = system: GABA uptake from the synaptic cleft into presynaptic nerve terminals and glial cells; settings: background statement; cited from earlier work
[2] = background statement; cited from earlier work
[3] = system: [^3 H]-GABA uptake; test: In vitro inhibition of [^3 H]-GABA uptake in rat cortical tissue; format: biochemical, Male wistar rat; settings: rat cortical tissue homogenate, pH 7.5, 60 minutes at 30° C.
Description: Values for in vitro inhibition of [^3 H]-GABA uptake for the invention compounds were assessed essentially by the method of Fjalland (Acta Pharmacol. Toxicol. 1978, 42, 73-76). Male wistar rat cortical tissue was gently homogenized by hand using a glass/PTFE homogenizer in 10 volumes of 0.32M sucrose. Incubation was performed in a 40 mM tris HCl buffer (pH 7.5 at 30° C.) containing […], 4 mM MgSO4, […] and 10 mM glucose, for 60 minutes at 30° C. Values for inhibition of GABA uptake for some representative compounds are recorded in Table I.

[4] = system: GABA uptake; settings: oral; Yunger, L. M. et al., 1984; cited from earlier work

Row | Compound | IC50 [3] | orally active inhibitors of GABA uptake [4] | also measured
1 | O=C(O)C1CCCNC1 (centres unmarked) [3-piperidinecarboxylic acid] | – | – | inhibitor of GABA uptake [1]: well-known and potent inhibitor of GABA uptake; cross the blood-brain barrier [2]: unable to cross the blood-brain barrier
2 | O=C(O)C1CCCN(CCC=C(c2ccccc2)c2ccccc2)C1 (centres unmarked) [SK&F 89976A, N-(4,4-diphenyl-3-buten-1-yl)nipecotic acid] | – | orally active inhibitors of GABA uptake | –
3 | O=C(O)C1=CCCN(CCC=C(c2ccccc2)c2ccccc2)C1 [SK&F 100330A, N-(4,4-diphenyl-3-buten-1-yl)guvacine] | – | orally active inhibitors of GABA uptake | –
4 | O=C(O)CC1CCN(CCC=C(c2ccccc2)c2ccccc2)C1 (stereo not drawn) [SK&F 100561, N-(4,4-diphenyl-3-buten-1-yl)-homo-β-proline] | – | orally active inhibitors of GABA uptake | –
5 | O=C(O)C1CCCN(CCC=C(c2ccccc2)c2cccs2)C1 (centres unmarked) [SK&F 100604J, N-(4-phenyl-4-(2-thienyl)-3-buten-1-yl)nipecotic acid] | – | orally active inhibitors of GABA uptake | –

The next lines start with results.

Row | IC50 [3] | Compound | orally active inhibitors of GABA uptake [4] | also measured
6 | 332 nM | O=C(O)[C@@H]1CCCN(CCON=C2CCCCC2c2ccccc2)C1 (stereo partly drawn) [Example 1, (R)-1-(2-(((2-Phenylcyclohexylidene)amino)oxy)ethyl)-3-piperidinecarboxylicacid hydrochloride] | – | –
7 | 417 nM | O=C(O)[C@@H]1CCCN(CCON=C2CCCC=C2c2ccccc2)C1 [Example 2, (R)-1-(2-(((2-Phenylcyclohex-2-enylidene)amino)oxy)ethyl)-3-piperidinecarboxylic acid hydrochloride] | – | –
8 | 819 nM | O=C(O)[C@@H]1CCCN(CCON=C2c3ccccc3CCC2c2ccccc2)C1 (stereo partly drawn) [Example 4, (R)-1-(2-(((2-Phenyl-1,2,3,4-tetrahydro-1-naphthylidene)amino)oxy)ethyl)-3-piperidinecarboxylic acid hydrochloride] | – | –
9 | 1380 nM | O=C(O)[C@@H]1CCCN(CCON=C2CC(c3ccccc3)c3ccccc32)C1 (stereo partly drawn) [Example 5, (R)-1-(2-(((3-Phenyl-1-indanylidene)amino)oxy)ethyl)-3-piperidinecarboxylicacid hydrochloride] | – | –
10 | 9500 nM | (R)-1-(2-(((2-(Benzylidene)cyclohexylidene)amino)oxy)ethyl)-3-piperidinecarboxylic acid hydrochloride [Example 3] | – | –
